Reference: the supplement of paper PMC4862054
“And” between values parts separate entries of the source, which are not always exact repeats. Identical values can stand only once.

Tests used:
MDA-MB-468 [1] = conditions: 72 h
Summary of the method: (§1)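 In this assay, breast cancer cell lines spent 72 h with compound at 5 concentrations in 10-fold steps over a compound-specific 10,000-fold range. The first readout was cell death by CellTox Green fluorescence, and the second was viability by CellTiter-Glo luminescence, each normalised per plate to 0.1 % DMSO and a positive kill control. EC50 came from the dose-response curves, censored at the top concentration.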

Hs578T [2] = conditions: 72 h
Summary of the method: as §1

CAL-120 [3] = conditions: 72 h
Summary of the method: as §1

CAL-51 [4] = conditions: 72 h
Summary of the method: as §1

BT-549 [5] = conditions: 72 h
Summary of the method: as §1

BT-474 = conditions: 72 h
Summary of the method: as §1

CAL-85-1 [6] = conditions: 72 h
Summary of the method: as §1

MDA-MB-231 [7] = conditions: 72 h
Summary of the method: as §1

HDQ-P1 [8] = conditions: 72 h
Summary of the method: as §1

MDA-MB-436 [9] = conditions: 72 h
Summary of the method: as §1

HCC1937 [10] = conditions: 72 h
Summary of the method: as §1

MFM-223 [11] = conditions: 72 h
Summary of the method: as §1

HCC1143 [12] = conditions: 72 h
Summary of the method: as §1

HCC1599 [13] = conditions: 72 h
Summary of the method: as §1

MCF-10A = conditions: 72 h
Summary of the method: as §1

SK-BR-3 [14] = conditions: 72 h
Summary of the method: as §1

CAL-148 [15] = conditions: 72 h
Summary of the method: as §1

DU-4475 [16] = conditions: 72 h
Summary of the method: as §1

MDA-MB-468 [17] = conditions: 72 h; remark: listed apart in the source
Summary of the method: (§2)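 Plates of 384 wells holding compound in 5 µl medium received breast cancer cell lines in 20 µl suspension and were incubated 72 h. CellTiter-Blue (2.5 µl, 2 h, 37 °C) was used for viability, read at 560/590 nm, and every plate was normalised to vehicle and a positive kill control and assessed by Z'-factor. The EC50 derives from a percent-inhibition dose-response curve fit censored at the highest concentration, leaving out rows whose drug sensitivity score was zero.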

Hs578T [18] = conditions: 72 h; remark: listed apart in the source
Summary of the method: as §2

CAL-120 [19] = conditions: 72 h; remark: listed apart in the source
Summary of the method: as §2

BT-549 [20] = conditions: 72 h; remark: listed apart in the source
Summary of the method: as §2

MDA-MB-231 [21] = conditions: 72 h; remark: listed apart in the source
Summary of the method: as §2

MDA-MB-436 [22] = conditions: 72 h; remark: listed apart in the source
Summary of the method: as §2

HCC1937 [23] = conditions: 72 h; remark: listed apart in the source
Summary of the method: as §2

MFM-223 [24] = conditions: 72 h; remark: listed apart in the source
Summary of the method: as §2

HCC1143 [25] = conditions: 72 h; remark: listed apart in the source
Summary of the method: as §2

HCC1599 [26] = conditions: 72 h; remark: listed apart in the source
Summary of the method: as §2

SK-BR-3 [27] = conditions: 72 h; remark: listed apart in the source
Summary of the method: as §2

CAL-51 [28] = conditions: 72 h; remark: listed apart in the source
Summary of the method: as §2

CAL-85-1 [29] = conditions: 72 h; remark: listed apart in the source
Summary of the method: as §2

HDQ-P1 [30] = conditions: 72 h; remark: listed apart in the source
Summary of the method: as §2

CAL-148 [31] = conditions: 72 h; remark: listed apart in the source
Summary of the method: as §2

MDA-MB-453 = conditions: 72 h
Summary of the method: as §2

DU-4475 [32] = conditions: 72 h; remark: listed apart in the source
Summary of the method: as §2

MDA-MB-231 [33] = assay: normalised viability (% of control), CellTiter-Blue; higher = more viable cells (about 100 = DMSO control); conditions: incubation time: 72 h
Summary of the method: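 Breast cancer cell lines were treated for 72 h in 384-well format and measured by CellTiter-Blue fluorescence at 560/590 nm. Results were normalised per plate to vehicle (100) and a positive kill control (0). The entry is normalised viability at a single listed concentration of the series.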

| Compound | EC50, CellTiter-Glo (MDA-MB-468 [1]) [nM] | EC50, CellTiter-Glo (CAL-120 [3]) [nM] | EC50, CellTiter-Glo (CAL-51 [4]) [nM] | EC50, CellTiter-Glo (BT-474) [nM] | EC50, CellTiter-Glo (CAL-85-1 [6]) [nM] | EC50, CellTiter-Glo (HDQ-P1 [8]) [nM] | EC50, CellTiter-Glo (MDA-MB-436 [9]) [nM] | EC50, CellTiter-Glo (MCF-10A) [nM] | EC50, CellTiter-Glo (SK-BR-3 [14]) [nM] | EC50, CellTiter-Blue viability (MDA-MB-468 [17]) [nM] | EC50, CellTiter-Blue viability (BT-549 [20]) [nM] | EC50, CellTiter-Blue viability (MDA-MB-231 [21]) [nM] | EC50, CellTiter-Blue viability (MDA-MB-436 [22]) [nM] | EC50, CellTiter-Blue viability (HCC1937 [23]) [nM] | EC50, CellTiter-Blue viability (HCC1599 [26]) [nM] | EC50, CellTiter-Blue viability (SK-BR-3 [27]) [nM] | EC50, CellTiter-Blue viability (CAL-85-1 [29]) [nM] | EC50, CellTiter-Blue viability (MDA-MB-453) [nM] | normalised viability (MDA-MB-231 [33]; 1000 nM) | normalised viability (MDA-MB-231 [33]; 10000 nM) | also measured |
| --- | --- | --- | --- | --- | --- | --- | --- | --- | --- | --- | --- | --- | --- | --- | --- | --- | --- | --- | --- | --- | --- |
| CN(c1ccccc1CNc1nc(Nc2ccc3c(c2)CC(=O)N3)ncc1C(F)(F)F)S(C)(=O)=O | 1750 | 8760 | 1110 | 2430 | 2450 | 1820 | 5620 | 1490 | 3190 | – | – | – | – | – | – | – | – | – | – | – | EC50, CellTiter-Glo (Hs578T [2]): 4360 nM; EC50, CellTiter-Glo (BT-549 [5]): 3130 nM; EC50, CellTiter-Glo (MDA-MB-231 [7]): 1990 nM; EC50, CellTiter-Glo (HCC1937 [10]): 6520 nM; EC50, CellTiter-Glo (MFM-223 [11]): 9400 nM; EC50, CellTiter-Glo (HCC1143 [12]): 3640 nM; EC50, CellTiter-Glo (HCC1599 [13]): 4380 nM; EC50, CellTiter-Glo (CAL-148 [15]): 1880 nM; EC50, CellTiter-Glo (DU-4475 [16]): 2130 nM |
| C[C@@]1(C(=O)Nc2ccc(F)nc2)CCCN1c1nc(Nc2cc(C3CC3)n[nH]2)c2cccn2n1 | 207 | 1250 | 1060 | 2050 | 467 | 402 | 2720 | 21.6 | 127 | 772 | 1310 | 435 | 6370 | 3300 | 70.8 | 588 | 858 | 314 | 46% | 31.4% | EC50, CellTiter-Glo (Hs578T [2]): 7980 nM; EC50, CellTiter-Glo (BT-549 [5]): 1420 nM; EC50, CellTiter-Glo (MDA-MB-231 [7]): 1770 nM; EC50, CellTiter-Glo (MFM-223 [11]): 1570 nM; EC50, CellTiter-Glo (HCC1143 [12]): 4150 nM; EC50, CellTiter-Glo (HCC1599 [13]): 2260 nM; EC50, CellTiter-Glo (DU-4475 [16]): 4110 nM; EC50, CellTiter-Blue viability (Hs578T [18]): 4740 nM; EC50, CellTiter-Blue viability (CAL-120 [19]): 1930 nM; EC50, CellTiter-Blue viability (MFM-223 [24]): 1310 nM; EC50, CellTiter-Blue viability (HCC1143 [25]): 258 nM; EC50, CellTiter-Blue viability (CAL-51 [28]): 1500 nM; EC50, CellTiter-Blue viability (HDQ-P1 [30]): 293 nM; EC50, CellTiter-Blue viability (CAL-148 [31]): 1170 nM; EC50, CellTiter-Blue viability (DU-4475 [32]): 1510 nM; normalised viability (MDA-MB-231 [33]; 10 nM): 90.6% |
| Nc1nccc(-c2c(-c3ccc(F)cc3)ncn2C2CCCCC2)n1 | 213 | – | > 10000 | – | 9490 | – | – | 9770 | – | – | – | – | – | – | – | – | – | – | – | – | – |
| CS(=O)(=O)OCCCCOS(C)(=O)=O [Busulfan] | – | – | – | > 100000 | – | – | – | – | – | – | – | – | – | 77100 | – | – | – | – | – | 95.4% | normalised viability (MDA-MB-231 [33]; 100 nM): 94.3%; normalised viability (MDA-MB-231 [33]; 100000 nM): 94.3% |
| CN1CCN(c2ccc3nc(-c4c(N)c5c(F)cccc5[nH]c4=O)[nH]c3c2)CC1 [Dovitinib] | – | > 10000 | – | – | – | – | – | – | – | – | – | – | – | 371 | – | – | – | – | 75.2% | 86.4% | normalised viability (MDA-MB-231 [33]; 10 nM): 96.1% |
| O=c1[nH]c(=O)n([C@H]2C[C@H](O)[C@@H](CO)O2)cc1F [Floxuridine] | 240 | 420 | 80.3 | 555 | 79.5 | – | 57.7 | – | 96.6 | 48.9 | 804 | 494 | 182 | 4070 | > 10000 | 60.3 | 66.3 | 5880 | 58.1% | 47.2% | EC50, CellTiter-Glo (Hs578T [2]): 34 nM; EC50, CellTiter-Glo (MDA-MB-231 [7]): 687 nM; EC50, CellTiter-Glo (HCC1937 [10]): 211 nM; EC50, CellTiter-Glo (HCC1599 [13]): 27 nM; EC50, CellTiter-Glo (DU-4475 [16]): 1580 nM; EC50, CellTiter-Blue viability (Hs578T [18]): 501 nM; EC50, CellTiter-Blue viability (CAL-120 [19]): 118 nM; EC50, CellTiter-Blue viability (HCC1143 [25]): 1630 nM; EC50, CellTiter-Blue viability (CAL-51 [28]): 46.9 nM; EC50, CellTiter-Blue viability (CAL-148 [31]): 19.8 nM; normalised viability (MDA-MB-231 [33]; 10 nM): 106% |
| O=c1[nH]cc(F)c(=O)[nH]1 [Fluorouracil] | – | – | – | – | 272 | – | 425 | – | 556 | > 10000 | 1240 | 2880 | 7520 | – | 2520 | 532 | 680 | 3900 | 97.5% | 64.7% | EC50, CellTiter-Blue viability (CAL-120 [19]): 2530 nM; EC50, CellTiter-Blue viability (CAL-51 [28]): 5390 nM; EC50, CellTiter-Blue viability (CAL-148 [31]): 944 nM; EC50, CellTiter-Blue viability (DU-4475 [32]): 2570 nM; normalised viability (MDA-MB-231 [33]; 10 nM): 104% |
| C[C@@H]1C=C2C(=O)O[C@@H]3CC[C@H](C1)[C@]23O [Galiellalactone] | 7120 | – | 2320 | – | 10500 | – | – | – | – | 7120 | 5580 | 7150 | 14700 | 16400 | – | 12600 | 6900 | 7210 | – | – | EC50, CellTiter-Glo (BT-549 [5]): 17700 nM; EC50, CellTiter-Blue viability (Hs578T [18]): 44600 nM; EC50, CellTiter-Blue viability (MFM-223 [24]): 38200 nM; EC50, CellTiter-Blue viability (CAL-51 [28]): 48900 nM; EC50, CellTiter-Blue viability (HDQ-P1 [30]): 39400 nM; EC50, CellTiter-Blue viability (CAL-148 [31]): 16100 nM; normalised viability (MDA-MB-231 [33]; 50 nM): 100%; normalised viability (MDA-MB-231 [33]; 5000 nM): 61.4%; normalised viability (MDA-MB-231 [33]; 50000 nM): 7.78% |
| CS(=O)(=O)CCNCc1ccc(-c2ccc3ncnc(Nc4ccc(OCc5cccc(F)c5)c(Cl)c4)c3c2)o1 [Lapatinib] | – | – | – | – | 304 | 359 | – | 504 | 49.8 | 1560 | 4320 | 5820 | 5900 | 6280 | 191 | 40.7 | 3740 | 75.1 | 85.8% and 109% | 52.9% and 52.4% | EC50, CellTiter-Blue viability (Hs578T [18]): 3790 nM; EC50, CellTiter-Blue viability (CAL-120 [19]): 6920 nM; EC50, CellTiter-Blue viability (MFM-223 [24]): 9850 nM |
| Cn1cnc2c(F)c(Nc3ccc(Br)cc3F)c(C(=O)NOCCO)cc21 [MEK-162] | – | > 1000 | – | 113 | – | 13.5 | – | 11.8 | – | – | – | 364 | – | – | 106 | – | – | – | 47% | – | EC50, CellTiter-Glo (DU-4475 [16]): 78.7 nM; EC50, CellTiter-Blue viability (HCC1143 [25]): 9.21 nM; EC50, CellTiter-Blue viability (DU-4475 [32]): 38.9 nM; normalised viability (MDA-MB-231 [33]; 1 nM): 104%; normalised viability (MDA-MB-231 [33]; 100 nM): 80.3% |
